Measured values taken from ChEMBL document CHEMBL4229572, “VU6007477, a Novel M1 PAM Based on a Pyrrolo[2,3-b]pyridine Carboxamide Core Devoid of Cholinergic Adverse Events” (ACS Med Chem Lett, 2018).

Legend:
[1] = target: T1, Muscarinic acetylcholine receptor M5 (Homo sapiens, UniProt P08912); test: Positive allosteric modulation of human M5 receptor expressed in CHO cells assessed as increase in acetylcholine-induced calcium mobilization pretreated for 2.5 mins followed by acetylcholine addition and measured after 1 min by Fluo-4-AM dye based assay; assay type: functional, cell-based
T1 sequence (P08912 whole entry): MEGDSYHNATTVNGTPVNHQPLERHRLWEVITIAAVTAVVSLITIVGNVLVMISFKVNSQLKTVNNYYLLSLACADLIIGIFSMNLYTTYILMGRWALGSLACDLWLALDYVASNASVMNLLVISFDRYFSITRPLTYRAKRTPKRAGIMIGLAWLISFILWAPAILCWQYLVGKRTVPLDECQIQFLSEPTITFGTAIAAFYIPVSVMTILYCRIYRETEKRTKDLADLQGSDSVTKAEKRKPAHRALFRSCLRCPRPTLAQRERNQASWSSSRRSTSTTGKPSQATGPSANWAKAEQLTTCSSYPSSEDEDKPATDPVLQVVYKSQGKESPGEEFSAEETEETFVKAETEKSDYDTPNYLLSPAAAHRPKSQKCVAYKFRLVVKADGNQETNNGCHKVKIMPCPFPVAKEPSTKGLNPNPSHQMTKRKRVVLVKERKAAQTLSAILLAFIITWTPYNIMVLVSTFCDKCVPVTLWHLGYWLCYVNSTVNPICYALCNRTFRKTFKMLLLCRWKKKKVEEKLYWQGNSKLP

[2] = Total brain to plasma partition coefficient, Kp in cannulated Sprague-Dawley rat at 0.2 mg/kg, iv administered via jugular vein as cassette dose measured after 0.25 hrs by LC-MS/MS analysis; assay type: ADME, organism-based; conditions: Sprague-Dawley, brain and plasma
[3] = target: T2, Muscarinic acetylcholine receptor M1 (Rattus norvegicus, UniProt P08482); test: Agonist activity at rat M1 receptor expressed in CHO cells assessed as increase in calcium mobilization measured after 2.5 mins by Fluo-4-AM dye based assay; assay type: functional, cell-based
T2 sequence (P08482 whole entry): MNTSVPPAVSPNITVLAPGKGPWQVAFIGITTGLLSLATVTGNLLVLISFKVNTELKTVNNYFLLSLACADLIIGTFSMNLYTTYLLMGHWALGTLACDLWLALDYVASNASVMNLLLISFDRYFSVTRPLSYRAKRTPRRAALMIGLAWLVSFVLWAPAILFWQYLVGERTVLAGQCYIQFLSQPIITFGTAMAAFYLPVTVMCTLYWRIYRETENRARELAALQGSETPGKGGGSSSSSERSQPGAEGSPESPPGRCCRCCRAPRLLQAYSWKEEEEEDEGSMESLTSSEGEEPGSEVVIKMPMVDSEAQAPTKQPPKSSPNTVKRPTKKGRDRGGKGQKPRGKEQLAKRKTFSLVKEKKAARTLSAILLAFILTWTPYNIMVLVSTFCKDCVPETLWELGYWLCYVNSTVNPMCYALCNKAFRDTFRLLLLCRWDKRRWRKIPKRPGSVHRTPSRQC

[4] = target: T3, Muscarinic acetylcholine receptor M1 (Rattus norvegicus) (UniProt P08482); test: (§1) Positive allosteric modulation of rat M1 receptor expressed in CHO cells assessed as increase in acetylcholine-induced calcium mobilization pretreated for 2.5 mins followed by acetylcholine addition and measured after 1 min by Fluo-4-AM dye based assay; assay type: functional, cell-based
T3 sequence (whole entry): T2 sequence (P08482 whole entry)

[5] = target: T2, Muscarinic acetylcholine receptor M1; test: as §1; assay type: functional, cell-based; conditions: read-out: EC50
[6] = system: P-gp; test: Substrate activity at P-gp (unknown origin) assessed as apparent permeability; assay type: ADME; conditions: human, not told
[7] = system: P-gp; test: Substrate activity at P-gp (unknown origin) assessed as efflux ratio of permeability; assay type: ADME; conditions: human, not told

EC50 [1]: > 30 µM
Kp at 0.25 h [2]: 0.28
EC50 ([3]; cho, read-out: EC50): > 10 µM
EC50 ([3]; read-out: pEC50 (converted)): > 10 µM
%max [4]: 93%
pKb [4]: 4.82
EC50 [5]: 0.23 µM
Papp [6]: 12 ×10⁻⁶ cm/s
efflux ratio [7]: 4.5
Structure (SMILES): Cn1cc(-c2ccc(Cc3cc(C(=O)NC4CCOCC4)nc4c3ccn4C)cn2)cn1
